This note sets out measurements from patent EP4015509A1, “ORGANOMETALLIC COMPOUNDS AND THEIR USE AS MULTIMODAL CONTRASTING MEDIA FOR IMAGING DIAGNOSIS” (Justesa Imagen S.A.U, priority 2020, dated 2022).

≈ marks a conversion by molar mass, not a printed value. Read-outs that look alike come from different tables or passages of the source. Where only a bound is given, the exact number is not on record here.

Data set [1] in a line: Osmolality test with freezing point equipment. The class given is physicochemical. The conditions noted are these: solutions at a concentration of 0.1 M.
The next data set concerns V79 fibroblast cultures. The data set is described as follows: IC50 in vitro by cell viability measurement. In kind it is cell-based. The source says: IC50 values were obtained by measuring cell viability in V79 fibroblast cultures as an alternative to animal experimentation. The values determined are summarized in the following table: Table 2: IC50 determination
The target of data set [2] is T1, Bovine Serum Albumin (BSA) (Bos taurus, UniProt P02769). Put plainly: Albumin affinity test by equilibrium dialysis (RED plate), ICP-MS analysis. Conditions: compound 0.25 mM, BSA 0.6 mM, HEPES buffer pH 7.4, five hours, 37 °C. (In equilibrium dialysis only unbound substance equilibrates across the membrane.)
T1 sequence (P02769 25-607): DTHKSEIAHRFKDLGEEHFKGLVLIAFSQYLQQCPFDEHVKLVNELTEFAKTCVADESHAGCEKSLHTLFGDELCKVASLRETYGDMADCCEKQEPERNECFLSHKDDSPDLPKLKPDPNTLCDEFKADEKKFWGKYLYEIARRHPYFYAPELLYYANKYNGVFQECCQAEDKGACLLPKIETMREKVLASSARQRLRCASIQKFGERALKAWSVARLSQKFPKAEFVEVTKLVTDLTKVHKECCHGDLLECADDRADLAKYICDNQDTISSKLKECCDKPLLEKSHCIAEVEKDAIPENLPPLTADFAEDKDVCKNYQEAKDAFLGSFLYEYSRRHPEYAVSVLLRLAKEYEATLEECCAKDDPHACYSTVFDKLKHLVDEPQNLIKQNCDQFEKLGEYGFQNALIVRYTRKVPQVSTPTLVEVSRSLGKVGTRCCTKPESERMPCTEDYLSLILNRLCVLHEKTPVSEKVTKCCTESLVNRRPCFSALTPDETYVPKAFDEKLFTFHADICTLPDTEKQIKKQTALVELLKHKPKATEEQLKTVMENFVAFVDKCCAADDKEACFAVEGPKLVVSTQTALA
Description: (§1) The albumin affinity test was carried out by in-vitro studies using Thermo Scientific™ "Single-Use RED Plate with 8K MWCO Inserts" 96-well plate, Bovine Serum Albumin (BSA) and HEPES. The technique of the devices is based on the process of equilibrium dialysis. The tests were carried out in a HEPES buffer with a pH of 7.4. In a typical test, following the manufacturer's measurement procedure, 400 µL of a solution containing the compound to be studied and BSA in concentrations of 0.25 mM and 0.6 mM respectively, in HEPES buffer, are added to the sample well. Additionally, 600 µL of HEPES buffer is added in the buffer well. After shaking the system for five hours at 300 rpm at a constant temperature of 37 °C, the concentration of the compound in each well is analysed. This analysis was performed using an Agilent ICP-MS (7900 Series) and with these concentration data the percentage of affinity of the studied compounds was determined.
The target of data set [3] is T1, Bovine Serum Albumin (BSA). Conditions: 5 h, 0.25 mM, pH 7.4.
Description: as §1
The subject of data set [4] is mice. The data set is described as follows: MRI imaging in a 7T animal magnetic resonance equipment. In kind it is in vivo. As to the method: The test was carried out in a 7T animal magnetic resonance equipment by administering the contrast medium containing the compound (8) at a dose of 0.1 mmol/Kg to mice.
Data set [5] concerns mice. Put plainly: PET/CT imaging in an animal PET/CT scanner. The class given is in vivo. Conditions: 130 µCi solution, gallium 68-labelled compound, Figure 7.

Regarding `O=C([O-])CN1CCN(CC(=O)[O-])CCN([C@H](CO)[C@H](O)CO)CCN(CC(=O)[O-])CC1.[Gd+3]` (racemic) [Gadobutrol, reference compound], the “Osmolality (mOs/Kg)” value in data set [1] was 93.33 mOs/Kg. Further, the IC50 (commonly the concentration needed to halve the response being measured) with V79 fibroblast cultures was over 75 mg/mL. In data set [2], the “Albumin affinity (%)” value is “Not detectable”.

Regarding `CC(=O)Nc1c(I)cc(I)c(C(=O)O)c1I` [Acetrizoic acid, reference compound], the “Osmolality (mOs/Kg)” value in data set [1] came to 258.47 mOs/Kg. The IC50 with V79 fibroblast cultures (read-out: IC50) stood at 4.04 mg/mL (≈ 7.25 mM). In addition, the “Albumin affinity (%)” value in data set [3] is 39.16%.

As to “Europium {10-{2-[2-(3-acetylamino-2,4,6-triiodophenylamino) aminoethyl]-2-oxoethyl}-1,4,7,10-tetraaza-1-cyclodecyl}-1,4,7-trioacetate [Compound (9)]”, the “Osmolality (mOs/Kg)” value in data set [1] amounted to 125.12 mOs/Kg. Besides, in the data set on V79 fibroblast cultures, the half-inhibitory concentration (IC50) is recorded as over 75 mg/mL.

For the molecule “Europium {10-{2-{2-[2-(3-Carboxy-2,4,6-triiodophenylamino)-2-oxoethylamino] aminoethyl}-2-oxoethyl}-1,4,7,10-tetraaza-1-cyclodododecyl}-1,4,7-triacetate [Compound (16)]”, the “Osmolality (mOs/Kg)” value in data set [1] was found to be 148.12 mOs/Kg. In the data set with V79 fibroblast cultures, the “IC50” value is over 75 mg/mL.

With “Gadolinium {10-{2-[2-(3-acetylamino-2,4,6-triiodophenylamino) aminoethyl]-2-oxoethyl}-1,4,7,10-tetraaza-1-cyclodecyl}-1,4,7-triacetate [Compound (8)]”, in data set [1], the “Osmolality (mOs/Kg)” value is on record as 117.58 mOs/Kg. Besides, the half-inhibitory concentration (IC50) in the data set on V79 fibroblast cultures was over 75 mg/mL. Besides, the “visualisation of the liver in MRI” value with mice [4] (additional study, MRI signal, figures 5 and 6) is “visualisation of the liver is possible”. In addition, in the data set on mice [4] (mice, dose of 0.1 mmol/Kg, 7T MRI, figures 3 and 4), the “elimination route of the contrast medium (MRI)” value is listed as “elimination via the kidneys”.

For the molecule “Gadolinium {10-{2-{2-[2-(3-Carboxy-2,4,6-triiodophenylamino)-2-oxoethylamino] aminoethyl}-2-oxoethyl}-1,4,7,10-tetraaza-1-cyclodododecyl}-1,4,7-triacetate [Compound (15)]”, the “Osmolality (mOs/Kg)” value in data set [1] is recorded as 155.38 mOs/Kg. For the same molecule, the “IC50” value in the data set on V79 fibroblast cultures is recorded as over 75 mg/mL.

In the case of “Gallium {10-{2-[2-(3-acetylamino-2,4,6-triiodophenylamino) aminoethyl]-2-oxoethyl}-1,4,7,10-tetraaza-1-cyclodecyl}-1,4,7-triacetate [Compound (7)]”, the “Osmolality (mOs/Kg)” value in data set [1] is 123.43 mOs/Kg. In the data set with V79 fibroblast cultures, the half-inhibitory concentration (IC50) came to 8.64 mg/mL. The “organs differentiated in PET/CT images” value with mice [5] was “heart, liver, kidneys and bladder are differentiated”.

Take “Gallium {10-{2-{2-[2-(3-Carboxy-2,4,6-triiodophenylamino)-2-oxoethylamino] aminoethyl}-2-oxoethyl}-1,4,7,10-tetraaza-1-cyclodododecyl}-1,4,7-triacetate [Compound (14)]”: the “Osmolality (mOs/Kg)” value in data set [1] was found to be 150.42 mOs/Kg. Moreover, the “IC50” value in the data set on V79 fibroblast cultures is given as 10.12 mg/mL.
